Source: patent US20070134744A1, “Epothilone resistant cell lines” (priority 2000, published 2007)

Legend:
[1] = tested on: KB-31 cells; experiment: In vitro cell growth inhibition assay (methylene blue); assay type: cell-based, human; conditions: read-out: concentration half-maximally inhibiting proliferation
Experimental: Anti-proliferative assays are performed basically as described (Meyer et al., Int. J. Cancer 43:851 (1989)). Briefly, cells are seeded at 1.5×10^3 cells/well into 96-well microtiter plates and allowed to adhere by incubation overnight. Compounds are added in serial dilutions on day 1. The plates are then incubated for an additional 3 days, after which the cells are fixed with 3.3% v/v glutaraldehyde, washed with water and stained with 0.05% w/v methylene blue according to conventional methods. After washing, the dye is eluted with 3% HCl and the optical density measured at 665 nm with a SpectraMax Plus (Molecular Devices, Sunnyvale, Calif.) according to manufacturers instructions. IC50 values are determined by mathematical curve-fitting using the SoftPro2.6.1 program (Molecular Devices, Sunnyvale, Calif.) using the formula (OD treated−OD start)/(OD control−OD start)×100. […] IC50 determinations with the cell line 298/D4/40 are performed in the presence of 40 nM epothilone A.
The epothilone resistant cell lines, EpoA320-80C, EpoA320/ND, 298/D4/40, 297/C5/0 and 315/sc5.9 are generated as disclosed above. […] A subclone, 298/D4/40, is adapted to grow in the presence of 40 nM epothilone A administered twice weekly (i.e. at every medium change). […]

[2] = tested on: EA40 cells; experiment: MTS growth inhibition assay; assay type: cell-based; conditions: EA40 cells, MTS, 72 hours drug; Table 1
Experimental: Growth inhibition may be analyzed using conventional methods, for example a MTS assay (PROMEGA, Wis.) may be used. In this assay approximately 4000 cells per well are seeded in 96 well plates in MEM supplemented with 10% fetal calf serum and incubated at 37° C. in 5.0% CO2. After 24 hours, dilutions of drug (concentration range used is between 1 nM and 1000 nM) are added and cells are allowed to incubate with drug for an additional 72 hours. The MTS reagent mixed with PMS (MTS:PMS 20:1 according to manufacturer's instructions) is then added and absorbance quantitated using a Thermomax microplate reader system according to conventional methods (Molecular Devices, Sunnyvale, Calif.). […] Six assays per drug per plate are performed. […]
As such, epothilone resistant cells would have some degree of cross-resistance to other P-gp substrates that could be reversed by P-gp inhibitors. To investigate this possibility, the cytotoxicity of the P-gp substrates, vincristine, doxorubicine and vinblastine is determined against epothilone A resistant cells using the MTS assay. […] When EA20 and resistant MDA/T0.3 cells are incubated with TAXOL® or epothilone A in the presence of [3′-Desoxy-3′-oxo-MeBmt]^1-[Val]^2-Ciclosporin (PSC-833; a P-gp inhibitor which is disclosed in U.S. Pat. No. 5,525,590), the resistance of MDA/T0.3 cells to TAXOL® is reversed but no effect on the resistance of EA20 to epothilone A is observed.

[3] = tested on: MDA-MB-435 cells; experiment: Cell cycle analysis by FACS; assay type: cell-based; conditions: 24 hours, 20 nM epothilone A
Experimental: (§1) Cells are fixed by resuspending in cold 70% ethanol, washing again with 5 ml of PBS and resuspending in PI solution ([…] propidium iodide, 38 mM sodium citrate, 20 μg/ml RNAse A). After incubation in PI solution at 37° C. for 30 minutes, cells are analyzed by flow cytometry according to conventional methodology (apparatus and software commercially available from Becton Dickinson Immunocytometry Systems, CA).
(§2) Cell cycle distribution patterns of epothilone A resistant and parental MDA-MB-435 epothilone A sensitive cells are compared by standard FACS analysis. […] Thus, a significant part of the epothilone A resistant cell population appears to overcome the G2/M block that normally occurs in the cell cycle of epothilone A sensitive cells.

[4] = tested on: EA60 cells; experiment: Cell cycle analysis by FACS; assay type: cell-based; conditions: 24 hours, 60 nM epothilone A
Experimental: as §1, §2

[5] = tested on: KB-8511 cells; assay type: cell-based, human
Experimental: Data in Table 4 are gathered according to the following methods: Cells (1×10^3) are seeded in 96-well plates and allowed to adhere for 24 hrs. Compounds are then added as two-fold serial dilutions and incubation continued for an additional 72 hrs. Cell numbers at the beginning and at the end of the experiment are estimated by methylene blue staining of cellular protein mass according to conventional methods. The net mass increase of vehicle-treated cells is set as 100% growth. The IC50 is determined as the drug concentration that leads to half-maximal growth inhibition compared to the control. The resistance factor (RF) for a particular drug is calculated by dividing the IC50 determined on the resistant cell line by that determined on the parental KB-31 cells. Data are presented as average±standard deviation (SD) of three separate experiments, except na=not applicable (n<3). Colchicine-selected KB-8511 cells overexpressing P-glycoprotein served as a reference for the classical multi-drug-resistant phenotype.

Question: What does the source list for `C/C(=C\c1csc(C)n1)[C@@H]1C[C@@H]2O[C@@H]2CCC[C@H](C)[C@H](O)[C@@H](C)C(=O)C(C)(C)[C@@H](O)CC(=O)O1` [Epothilone A, epothilone A]?
Answer: IC50 [1]: 3.2 nM; IC50 [2]: 36 ± 2 nM; cell cycle distribution [3]: blocked at the G2/M phase; cell cycle distribution [4]: overcomes the G2/M phase block; RF (resistance factor: IC50 resistant cell line / IC50 parental KB-31) ([5]; KB-8511 (Colch selected), 72 hrs, average of three experiments): 0.7; resistance profile in words ([5]; KB-8511 vs parental KB-31): retain full activity
